Read-outs that look alike come from different tables or passages of the source.
Assays:
[1] = test system: cellular H3K36me2 level in thyroid carcinoma cell line CGTH-W-1 (NSD2 E1099K); assay: H3K36me2 cellular ELISA assay in CGTH-W-1 line; format: cell-based; conditions: Homo sapiens, CGTH-W-1, 72 h, read-out: H3K36me2 ELISA in CGTH-W-1
Experimental: H3K36Me2 Cellular ELISA Assay in CGTH-W-1 Line
An ELISA (enzyme-linked immunosorbent assay) based assay was used to test the ability of candidate compound to reduce cellular H3K36me2 level in thyroid carcinoma cell line CGTH-W-1, carrying NSD2 E1099K gain of function mutation. CGTH-W-1 (DSMZ) cells are maintained in RPM11640 media with 10% FBS and 50 U/ml Penicillin-Streptomycin.
Cells were treated with tested compounds at the desired concentration for 72 hours.
Histone bound plates were washed and blocked with 5% BSA. […] The abundance of H3K36me2 and total H3 was measured by Chemiluminesce on a plate reader. Cell viability was monitored on a parallel seeded plate with CellTiter-Glo reagent (Promega #G7573).

[2] = biological target: NSD2 [1-1365] (Homo sapiens (Human), UniProt O96028); assay: LC-MS/MS-based NSD2 enzymatic assay (SAH production); format: biochemical; conditions: read-out: NSD2 IC50
How it was run: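 Full-length NSD2 [1-1365] (8 nM final) with 1 μM SAM and 400 nM mouse-liver nucleosome in Tris pH 8.0 buffer; inhibitor preincubated 20 min with enzyme/SAM before nucleosome addition. Reaction 90 min at room temperature, TFA-quenched; SAH quantified by LC-MS/MS against d4-SAH internal standard and SAH standard curve.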

[3] = test system: cellular H3K36me2 level in multiple myeloma cell line KMS11 (t(4;14)+); assay: H3K36me2 cellular ELISA assay in KMS11-Par line; format: cell-based; conditions: Homo sapiens, KMS-11, ELISA, read-out: H3K36me2 ELISA in KMS11-Par
How it was run: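 KMS11 cells were seeded a day ahead at 1,250 per well in Opti-MEM with B-27/N2, then treated with compound for 72 h. Histones were acid-extracted with 0.4M HCl, and H3K36me2 and total H3 were read by chemiluminescent ELISA. Viability was checked with CellTiter-Glo on a parallel plate in maintenance media.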

[4] = KMS11-Par line (t(4;14)+), 72 hours treatment
[5] = NSD2 biochemical activity, class symbols

NSD2 [1-1365], sequence (O96028 whole entry): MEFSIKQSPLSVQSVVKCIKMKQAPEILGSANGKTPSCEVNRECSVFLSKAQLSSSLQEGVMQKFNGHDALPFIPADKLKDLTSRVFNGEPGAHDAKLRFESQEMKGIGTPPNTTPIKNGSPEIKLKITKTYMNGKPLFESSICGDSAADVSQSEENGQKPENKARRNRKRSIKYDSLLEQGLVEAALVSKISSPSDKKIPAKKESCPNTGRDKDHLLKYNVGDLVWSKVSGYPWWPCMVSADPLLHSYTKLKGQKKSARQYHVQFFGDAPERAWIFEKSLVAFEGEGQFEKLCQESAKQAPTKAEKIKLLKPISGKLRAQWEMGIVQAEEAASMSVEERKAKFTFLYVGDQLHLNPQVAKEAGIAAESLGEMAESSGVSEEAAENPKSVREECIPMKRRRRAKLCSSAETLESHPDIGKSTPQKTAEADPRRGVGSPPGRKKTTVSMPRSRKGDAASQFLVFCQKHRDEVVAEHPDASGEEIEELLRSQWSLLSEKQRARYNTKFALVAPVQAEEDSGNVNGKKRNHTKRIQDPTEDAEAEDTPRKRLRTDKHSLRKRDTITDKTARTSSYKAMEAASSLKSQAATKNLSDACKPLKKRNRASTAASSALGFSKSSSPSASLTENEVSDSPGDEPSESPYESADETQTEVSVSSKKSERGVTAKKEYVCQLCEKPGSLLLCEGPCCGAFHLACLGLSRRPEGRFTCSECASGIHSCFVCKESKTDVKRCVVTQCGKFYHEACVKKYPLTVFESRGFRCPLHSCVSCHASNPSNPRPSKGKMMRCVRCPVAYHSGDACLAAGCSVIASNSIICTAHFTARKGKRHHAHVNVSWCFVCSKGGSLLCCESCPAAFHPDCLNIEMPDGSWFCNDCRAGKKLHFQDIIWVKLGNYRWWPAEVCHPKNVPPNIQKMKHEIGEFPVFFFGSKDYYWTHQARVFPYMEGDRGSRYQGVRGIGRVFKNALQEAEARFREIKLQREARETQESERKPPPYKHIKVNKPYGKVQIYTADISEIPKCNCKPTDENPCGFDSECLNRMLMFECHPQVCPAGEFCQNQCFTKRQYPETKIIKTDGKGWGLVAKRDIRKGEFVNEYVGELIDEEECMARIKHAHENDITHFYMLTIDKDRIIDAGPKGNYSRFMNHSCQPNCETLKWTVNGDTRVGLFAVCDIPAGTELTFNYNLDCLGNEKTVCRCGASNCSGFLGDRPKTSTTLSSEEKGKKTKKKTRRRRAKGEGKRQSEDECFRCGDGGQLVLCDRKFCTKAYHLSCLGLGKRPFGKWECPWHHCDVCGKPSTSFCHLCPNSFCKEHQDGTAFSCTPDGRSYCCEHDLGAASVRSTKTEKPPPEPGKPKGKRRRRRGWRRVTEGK

SMILES | IC50 [2] [µM] | IC50 [3, 4] [µM] | IC50 [2, 5] [µM] | IC50 ([3]; KMS11-Par line, 72 hours) [µM] | IC50 [1] [µM]
Cc1cncc([C@@]2(N)CCCN(c3cnc(-c4ccc(F)c(F)c4)cc3Cn3cnc4c(N)ncnc43)C2)n1 [Example 258, (R)-9-((5-(3-amino-3-(6-methylpyrazin-2-yl)piperidin-1-yl)-2-(3,4-difluorophenyl)pyridin-4-yl)methyl)-9H-purin-6-amine] | 0.01 to 1 |  |  |  | 0.434
COc1ccc(-c2cc(Cn3cnc4c(N)ncnc43)c(N3CCC[C@](N)(c4cccc(Cl)n4)C3)cn2)cc1 [Example 211, (R)-9-((5-(3-amino-3-(6-chloropyridin-2-yl)piperidin-1-yl)-2-(4-methoxyphenyl)pyridin-4-yl)methyl)-9H-purin-6-amine] | 0.001 to 0.01 |  |  |  | 0.387
Nc1ncnc2c1ncn2Cc1cc(-c2ccc3c(c2)COC3)ncc1N1CCCC(N)(c2cccc(Cl)n2)C1 (stereo not drawn) [Example 179, 9-((5-(3-amino-3-(6-chloropyridin-2-yl)piperidin-1-yl)-2-(1,3-dihydroisobenzofuran-5-yl)pyridin-4-yl)methyl)-9H-purin-6-amine] | 0.01 to 1 |  |  |  | 1.42
Cn1ncc2cc(-c3cc(Cn4cnc5c(N)ncnc54)c(N4CCCC(N)(c5cccc(Cl)n5)C4)cn3)ccc21 (stereo not drawn) [Example 225, 9-((5-(3-amino-3-(6-chloropyridin-2-yl)piperidin-1-yl)-2-(1-methyl-1H-indazol-5-yl)pyridin-4-yl)methyl)-9H-purin-6-amine] | 0.01 to 1 |  |  |  | 1.96
Nc1ncnc2c1ncn2Cc1cc(-c2ccc(F)cc2)ncc1N1CCCC(N)(c2csc(Cl)n2)C1 (stereo not drawn) [Example 281, 9-((5-(3-amino-3-(2-chlorothiazol-4-yl)piperidin-1-yl)-2-(4-fluorophenyl)pyridin-4-yl)methyl)-9H-purin-6-amine] | 0.01 to 1 |  |  |  | 0.826
Nc1ncnc2c1ncn2Cc1cc(-c2ccc(OC(F)F)cc2)ncc1N1CCCC(N)(c2cccc(Cl)n2)C1 (stereo not drawn) [Example 184, 9-((5-(3-amino-3-(6-chloropyridin-2-yl)piperidin-1-yl)-2-(4-(difluoromethoxy)phenyl)pyridin-4-yl)methyl)-9H-purin-6-amine] | 0.01 to 1 |  |  |  | 0.592
Nc1nccc2c1ncn2Cc1cc(-c2ccc(F)c(F)c2)ncc1N1CCC[C@](N)(Cc2nccs2)C1 [Example 48, (S)-1-((5-(3-amino-3-(thiazol-2-ylmethyl)piperidin-1-yl)-2-(3,4-difluorophenyl)pyridin-4-yl)methyl)-1H-imidazo[4,5-c]pyridin-4-amine] |  | 0.464 | 0.001 to 0.01 |  | 
Cc1cc2c(cnn2C)cc1-c1cc(Cn2cnc3c(N)ncnc32)c(N2CCC[C@](N)([C@@H](O)C(F)F)C2)cn1 [Example 136, (R)-1-((R)-3-amino-1-(4-((6-amino-9H-purin-9-yl)methyl)-6-(1,6-dimethyl-1H-indazol-5-yl)pyridin-3-yl)piperidin-3-yl)-2,2-difluoroethan-1-ol] |  | 8.8 | 0.01 to 1 |  | 
C=CC(=O)Nc1ccc(-c2cc(Cn3cnc4c(N)ncnc43)c(N3CCCC(N)(CC(F)F)C3)cn2)cc1 (stereo not drawn) [Example 76, N-(4-(5-(3-amino-3-(2,2-difluoroethyl)piperidin-1-yl)-4-((6-amino-9H-purin-9-yl)methyl)pyridin-2-yl)phenyl)acrylamide] |  | 2.12 | 0.01 to 1 |  | 
Cc1cccc(C[C@@]2(N)CCCN(c3cnc(-c4ccc(F)c(F)c4)cc3Cn3cnc4c(N)ncnc43)C2)n1 [Example 55, (S)-9-((5-(3-amino-3-((6-methylpyridin-2-yl)methyl)piperidin-1-yl)-2-(3,4-difluorophenyl)pyridin-4-yl)methyl)-9H-purin-6-amine] |  | 0.91 | 0.001 to 0.01 |  | 
Nc1ncnc2c1ncn2Cc1cc(-c2ccc(F)c(F)c2)ncc1N1CCC[C@](N)(c2ncccc2F)C1 [Example 199, (R)-9-((5-(3-amino-3-(3-fluoropyridin-2-yl)piperidin-1-yl)-2-(3,4-difluorophenyl)pyridin-4-yl)methyl)-9H-purin-6-amine] | 0.001 to 0.01 |  |  | 0.846 | 
Nc1ncnc2c1ncn2Cc1cc(-c2ccc(F)c(F)c2)ncc1N1CCCC(N)(Cc2cccc(F)n2)C1 (stereo not drawn) [Example 69, 9-((5-(3-amino-3-((6-fluoropyridin-2-yl)methyl)piperidin-1-yl)-2-(3,4-difluorophenyl)pyridin-4-yl)methyl)-9H-purin-6-amine] |  | 1.15 | 0.01 to 1 |  | 
Cc1cccc(C2(N)CCCN(c3cnc(-c4ccc(F)c(F)c4)cc3Cn3cnc4c(N)ncnc43)C2)n1 (stereo not drawn) [Example 177, 9-((5-(3-amino-3-(6-methylpyridin-2-yl)piperidin-1-yl)-2-(3,4-difluorophenyl)pyridin-4-yl)methyl)-9H-purin-6-amine] | 0.001 to 0.01 |  |  | 0.407 | 

More lines, main results first:

IC50 [2] [µM] | IC50 [3, 4] [µM] | IC50 [2, 5] [µM] | IC50 ([3]; KMS11-Par line, 72 hours) [µM] | SMILES | IC50 [1] [µM]
0.001 to 0.01 |  |  | 0.264 | CCc1cccc([C@@]2(N)CCCN(c3cnc(-c4ccc(F)cc4)cc3Cn3cnc4c(N)ncnc43)C2)n1 [Example 202, (R)-9-((5-(3-amino-3-(6-ethylpyridin-2-yl)piperidin-1-yl)-2-(4-fluorophenyl)pyridin-4-yl)methyl)-9H-purin-6-amine] | 
> 1 |  |  | 33.3 | Nc1ncnc2c1ncn2Cc1cc(-c2ccc(F)c(F)c2)ncc1N1CCCC(N)(c2cccnc2)C1 (stereo not drawn) [Example 271, 9-((5-(3-amino-3-(pyridin-3-yl)piperidin-1-yl)-2-(3,4-difluorophenyl)pyridin-4-yl)methyl)-9H-purin-6-amine] | 
0.01 to 1 |  |  | 9.63 | Nc1nccc2c1ncn2Cc1cc(C2CC2)ncc1N1CCC[C@](N)(c2cccc(C(F)F)n2)C1 [Example 264, (R)-1-((5-(3-amino-3-(6-(difluoromethyl)pyridin-2-yl)piperidin-1-yl)-2-cyclopropylpyridin-4-yl)methyl)-1H-imidazo[4,5-c]pyridin-4-amine] | 
0.01 to 1 |  |  | 27.5 | COCC1CC(N)CN(c2cnc(-c3ccc(F)c(F)c3)cc2Cn2cnc3c(N)ncnc32)C1 (stereo not drawn) [Example 308, 9-((5-(3-amino-5-(methoxymethyl)piperidin-1-yl)-2-(3,4-difluorophenyl)pyridin-4-yl)methyl)-9H-purin-6-amine] | 
0.001 to 0.01 |  |  | 0.389 | Nc1ncnc2c1ncn2Cc1cc(-c2ccc(F)cc2)ncc1N1CCC[C@](N)(c2cccc(C(F)F)n2)C1 [Example 203, (R)-9-((5-(3-amino-3-(6-(difluoromethyl)pyridin-2-yl)piperidin-1-yl)-2-(4-fluorophenyl)pyridin-4-yl)methyl)-9H-purin-6-amine] | 
0.01 to 1 |  |  | 15.3 | Cn1cc(C2(N)CCCN(c3cnc(-c4ccc(F)c(F)c4)cc3Cn3cnc4c(N)nccc43)C2)cn1 (stereo not drawn) [Example 270, 1-((5-(3-amino-3-(1-methyl-1H-pyrazol-4-yl)piperidin-1-yl)-2-(3,4-difluorophenyl)pyridin-4-yl)methyl)-1H-imidazo[4,5-c]pyridin-4-amine] | 
0.001 to 0.01 |  |  | 0.235 | Cc1cccc([C@@]2(N)CCCN(c3cnc(-c4ccc(F)cc4)cc3Cn3cnc4c(N)nccc43)C2)n1 [Example 261, (R)-1-((5-(3-amino-3-(6-methylpyridin-2-yl)piperidin-1-yl)-2-(4-fluorophenyl)pyridin-4-yl)methyl)-1H-imidazo[4,5-c]pyridin-4-amine] | 
0.01 to 1 |  |  | 0.563 | Nc1ncnc2c1ncn2Cc1cc(-c2ccc(F)c(F)c2)ncc1N1CC[C@@H](O)[C@](N)(c2cccc(Cl)n2)C1 [Example 302, (3R,4R)-3-amino-1-(4-((6-amino-9H-purin-9-yl)methyl)-6-(3,4-difluorophenyl)pyridin-3-yl)-3-(6-chloropyridin-2-yl)piperidin-4-ol] | 
0.001 to 0.01 |  |  | 0.632 | Nc1ncnc2c1ncn2Cc1cc(-c2ccc(F)cc2)ncc1N1CCCC(N)(c2cccc(Cl)n2)C1 (stereo not drawn) [Example 205, 9-((5-(3-amino-3-(6-chloropyridin-2-yl)piperidin-1-yl)-2-(4-fluorophenyl)pyridin-4-yl)methyl)-9H-purin-6-amine] | 
0.001 to 0.01 |  |  | 5.54 | CC(C)n1ccc([C@@]2(N)CCCN(c3cnc(-c4ccc(F)cc4)cc3Cn3cnc4c(N)ncnc43)C2)n1 [Example 274, (R)-9-((5-(3-amino-3-(1-isopropyl-1H-pyrazol-3-yl)piperidin-1-yl)-2-(4-fluorophenyl)pyridin-4-yl)methyl)-9H-purin-6-amine] | 
0.001 to 0.01 |  |  | 0.436 | Nc1nccc2c1ncn2Cc1cc(-c2ccc(F)cc2)ncc1N1CCCC(N)(c2ccccn2)C1 (stereo not drawn) [Example 266, 1-((5-(3-amino-3-(pyridin-2-yl)piperidin-1-yl)-2-(4-fluorophenyl)pyridin-4-yl)methyl)-1H-imidazo[4,5-c]pyridin-4-amine] | 
